The source of these data is PubChem BioAssay AID1033 (Sanford-Burnham Center for Chemical Genomics, 2008).

Active and inactive are the calls of the source. The rule behind the calls is not given here.

The target in the assay is Chaperone protein DnaK (Escherichia coli (strain K12)) (UniProt P0A6Y8). As to the kind of experiment: binders of DnaK substrate-binding domain, biophysical, NMR, chaperone (AID 1033). The note with it: Purified DnaK SBD, NMR ligand binding.
Sequence of Chaperone protein DnaK (Escherichia coli (strain K12)) (P0A6Y8 whole entry, looked up, the tested form may be a part): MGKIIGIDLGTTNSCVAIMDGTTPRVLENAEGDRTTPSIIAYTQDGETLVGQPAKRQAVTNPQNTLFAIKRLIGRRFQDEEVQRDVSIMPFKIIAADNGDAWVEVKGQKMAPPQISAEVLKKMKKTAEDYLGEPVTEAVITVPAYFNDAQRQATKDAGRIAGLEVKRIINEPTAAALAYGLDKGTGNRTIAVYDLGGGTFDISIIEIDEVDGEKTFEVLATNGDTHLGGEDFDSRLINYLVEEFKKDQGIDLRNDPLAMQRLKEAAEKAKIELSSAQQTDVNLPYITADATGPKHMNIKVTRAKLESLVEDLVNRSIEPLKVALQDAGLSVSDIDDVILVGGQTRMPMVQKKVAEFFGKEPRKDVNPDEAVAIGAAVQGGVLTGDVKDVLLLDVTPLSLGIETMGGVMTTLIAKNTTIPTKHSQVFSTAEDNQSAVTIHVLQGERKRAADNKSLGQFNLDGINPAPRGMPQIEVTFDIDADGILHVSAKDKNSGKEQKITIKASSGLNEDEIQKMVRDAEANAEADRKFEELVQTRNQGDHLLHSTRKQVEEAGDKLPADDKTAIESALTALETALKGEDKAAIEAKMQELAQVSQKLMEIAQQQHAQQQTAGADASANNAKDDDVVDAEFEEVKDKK
As to `O=C1CSC(=S)N1Cc1cccnc1`, the Kd is > 4 mM (inactive). As to `COc1cc2c(cc1O)[C@@H](Cc1ccc(O)cc1)[N+](C)(C)CC2`, the Kd was > 4 mM (inactive). The result for `CC1(C)CC2C1CCC1(C)OC1CCC2(C)O` (stereo not given) reads > 4 mM (inactive); that for `Cn1c2ccccc2n2c(=S)[nH]nc12`, > 4 mM (inactive); that for `Cc1cc(NC(=O)Cc2cccs2)no1`, > 4 mM (inactive). For the molecule `N#Cc1nc(-c2ccccc2Cl)oc1N1CCOCC1`, the Kd is > 4 mM (inactive). The result for `Nc1cccc(S(=O)(=O)N2CCCC2)c1` reads > 4 mM (inactive). For the molecule `O=C(Nc1cnccn1)c1cccc(C(F)(F)F)c1`, the Kd is > 4 mM (inactive). On to `COC(=O)C1CCN(c2ccc(Cl)nn2)CC1`, for which the Kd was > 4 mM (inactive).

Regarding `CC(=O)NC(=S)Nc1ccc(S(N)(=O)=O)cc1`, the Kd is > 4 mM (inactive). The result for `CN(C)c1ccc(CNn2cnnc2)cc1` reads > 4 mM (inactive); that for `c1ccc(-c2nc3ccccc3nc2-c2ccccn2)nc1`, > 4 mM (inactive). Consider `O=C(Oc1ccc(-c2nnco2)cc1)N1CCCCC1`, for which the Kd is > 4 mM (inactive).

As for `OCc1cccc2c1OCCO2`, the Kd is > 4 mM (inactive).

Turning to `Nc1ccc(OC(F)(F)F)cc1`, the Kd is > 4 mM (inactive).

`c1ccc(-c2noc(-c3cccnc3)n2)nc1`: the Kd is > 4 mM (inactive). With `C=C1C2CC[C@@]3(C)[C@H](c4ccoc4)OC(=O)C[C@]13O[C@H]1CC(O)C(C)(C)C(CC(=O)OC)[C@@]21C` (stereo not given in full), the Kd is > 4 mM (inactive). Turning to `Cc1cc(C(=O)NCc2cccs2)cs1`, the Kd is > 4 mM (inactive). The same measure for `C=C(C)C1CC=C(CO)CC1` (stereo not given): > 4 mM (inactive). Take `Cc1ccccc1NC(=O)/C=C\C(N)=O`: the Kd was > 4 mM (inactive). Consider `Cc1ccc(N2C(=O)CC(Sc3ncn[nH]3)C2=O)cc1` (stereo not given), for which the Kd is > 4 mM (inactive). For `Cc1sc(N)c(C(N)=O)c1C`, the Kd is > 4 mM (inactive). The same measure for `Cc1ccc(O)c(NC(=O)c2ccco2)c1`: > 4 mM (inactive); for `O=C(Cc1ccc(F)cc1)Nc1ncccn1`: > 4 mM (inactive).

Take `O=c1nc(N2CCOCC2)nc2n1CCO2`: the Kd was > 4 mM (inactive). The same measure for `COc1cc2c(cc1OC)C(=O)OC2`: > 4 mM (inactive); for `O=C(O)C1COc2ccccc2O1` (stereo not given): > 4 mM (inactive); for `O=C(O)c1ccc(-c2cccs2)cc1`: > 4 mM (inactive).

Take `Nc1cc(=O)[nH]c(=O)n1Cc1ccco1`: the Kd is > 4 mM (inactive). Regarding `Nc1ccc2[nH]ncc2c1`, the Kd is > 4 mM (inactive).

On to `NS(=O)(=O)c1ccc(NC(=O)/C=C\C(=O)O)cc1`, for which the Kd was > 4 mM (inactive).

Turning to `Nc1ccnc(C(=O)O)c1`, the Kd is > 4 mM (inactive).

For `CS(=O)(=O)N1CCN(C(=O)Cc2cccs2)CC1`, the Kd is > 4 mM (inactive). With `Cc1cc(C)n2nc(-c3cccnc3)nc2n1`, the Kd was > 4 mM (inactive).

In the case of `C=C1C2=CC(=O)O[C@@H](c3ccoc3)[C@]2(C)CCC1[C@@]1(C)C=CC(=O)C(C)(C)[C@@H]1CC(=O)OC` (stereo not given in full), the Kd was > 4 mM (inactive). Consider `Cc1nnc2sc(-c3csc4c3CCCC4)nn12`, for which the Kd was > 4 mM (inactive). The same measure for `CC(=O)Nc1ccc(N(C)C(C)=O)cc1`: > 4 mM (inactive); for `Cc1occc1C(=O)Nc1ccc2c(c1)OCO2`: > 4 mM (inactive). Turning to `CCN=Cc1c(O)n(-c2ccccc2C)c(=O)[nH]c1=O`, the Kd was > 4 mM (inactive). On to `COC(=O)c1ccc(N2CCOCC2)nc1`, for which the Kd was > 4 mM (inactive). Take `Cc1nnc(NCc2ccc3c(c2)OCO3)[nH]c1=O`: the Kd was > 4 mM (inactive). Regarding `O=C(O)c1snnc1-c1ccccc1`, the Kd is > 4 mM (inactive). Regarding `COCC(=O)Nc1ccc(F)cc1F`, the Kd is > 4 mM (inactive). Regarding `CC1(C)C=CC(=O)[C@@]2(C)C1CC(=O)[C@]1(C)C2CC[C@@]2(C)[C@H](c3ccoc3)OC(=O)C3OC321` (stereo not given in full), the Kd was > 4 mM (inactive). For the molecule `NC(CC(=O)O)c1ccccc1` (stereo not given), the Kd is > 4 mM (inactive). The same measure for `COc1cnn(-c2ccccc2)c(=O)c1N(C)C`: > 4 mM (inactive). The result for `NC(=O)CSc1nnc(-c2ccncc2)o1` reads > 4 mM (inactive); that for `O=C1CSC(=Nc2ccc(O)cc2)N1`, > 4 mM (inactive); that for `CC(C)CCCC(C)[C@H]1CCC2C3CC[C@@H]4C[C@H](O)CC[C@]4(C)C3CC[C@@]21C` (stereo not given in full), > 4 mM (inactive). Turning to `CC(=O)Nc1ccn(Cc2c(F)cccc2Cl)n1`, the Kd is > 4 mM (inactive). The same measure for `O=c1cnnc(N2CCCCC2)[nH]1`: > 4 mM (inactive); for `CC(=O)Nc1ccc(S(=O)(=O)Nc2cc(C)on2)cc1`: > 4 mM (inactive); for `COc1ccc(-c2cc(=O)c3c(OC)c(OC)c(OC)c(OC)c3o2)cc1`: > 4 mM (inactive). Consider `Nc1ncnc2nc[nH]c12`, for which the Kd was > 4 mM (inactive). Consider `Cc1cc(C)n(CC(=O)NC2CCCCC2)n1`, for which the Kd is > 4 mM (inactive). The result for `COC(=O)C1=C(C)N(c2cccc(C(C)=O)c2)C(=O)C1` reads > 4 mM (inactive); that for `O=C(O)CCC(=O)Nc1nccs1`, > 4 mM (inactive); that for `CC(=O)c1c(C)nn(CC(=O)O)c1C`, > 4 mM (inactive). Take `CCc1ccccc1NC(=O)c1cnccn1`: the Kd was > 4 mM (inactive).

Consider `O=C(Nc1ccccc1)Nc1ccccn1`, for which the Kd is > 4 mM (inactive). For the molecule `O=C(O)Cn1nc(-c2ccccc2)c2ccccc2c1=O`, the Kd was > 4 mM (inactive).

Consider `NC(Cn1ccc(=O)c(O)c1)C(=O)O` (stereo not given), for which the Kd is > 4 mM (inactive). The same measure for `O=C(O)c1ccc(Oc2ccccc2)nc1`: > 4 mM (inactive); for `CS(=O)(=O)N1CCN(C(=O)c2ccccc2)C1`: > 4 mM (inactive).

Turning to `C=CC(=O)N1CC2CC(C1)c1cccc(=O)n1C2` (stereo not given), the Kd was > 4 mM (inactive).

Turning to `COC(=O)CSc1ncnc2c(C)csc12`, the Kd is > 4 mM (inactive). The same measure for `CN1C2CC3C[C@H]1C(O3)C2O` (stereo not given in full): > 4 mM (inactive); for `NC(=O)CN1CCC(c2nc3ccccc3[nH]2)CC1`: > 4 mM (inactive); for `C/C=C/C(=O)Nc1ccc(NC(C)=O)cc1`: > 4 mM (inactive).

Turning to `Cc1cccc(C)c1NC(=O)CN1CCOCC1`, the Kd is > 4 mM (inactive). The same measure for `CN(c1ccccc1C(=O)N1CCOCC1)S(C)(=O)=O`: > 4 mM (inactive); for `O=c1c(O)c(-c2ccccc2)oc2cc(O)ccc12`: > 4 mM (inactive).

For the molecule `CCOC(=O)CC1Sc2ccccc2NC1=S` (stereo not given), the Kd is > 4 mM (inactive).

For `CC(C)(C)C(=O)Nc1nnc(SCC(N)=O)s1`, the Kd is > 4 mM (inactive). Turning to `C[n+]1cccc(C(=O)[O-])c1`, the Kd is > 4 mM (inactive). Take `O=C(O)C1=Cc2ccccc2OC1`: the Kd was > 4 mM (inactive). Turning to `COC(=O)CC1SC(=O)NC1=O` (stereo not given), the Kd is > 4 mM (inactive). Take `COc1ccc(C(N)=O)cc1NC(C)=O`: the Kd is > 4 mM (inactive). Regarding `CCn1cnc2cc([N+](=O)[O-])ccc2c1=O`, the Kd was > 4 mM (inactive). With `COC(=O)c1ccc(NC(=O)CC2NCCNC2=O)cc1` (stereo not given), the Kd is > 4 mM (inactive). Turning to `COc1cnn(Cc2ccccc2)c(=O)c1Cl`, the Kd was > 4 mM (inactive). Regarding `O=C(c1ccc(F)cc1)N1CCN(c2ncccn2)CC1`, the Kd is > 4 mM (inactive). `O=C1CSC(=Nc2ccccc2[N+](=O)[O-])N1`: the Kd was > 4 mM (inactive). `Cn1ccc(NC(=S)Nc2cccc([N+](=O)[O-])c2)n1`: the Kd was > 4 mM (inactive).

As to `Cc1nnc(SCC(=O)NCc2ccccc2)[nH]c1=O`, the Kd is > 4 mM (inactive). As for `CC1(C)C2CC(=O)[C@]3(C)C(CC[C@@]4(C)[C@H](c5ccoc5)OC(=O)C5OC543)[C@@]2(C)[C@@H](O)C[C@H]1O` (stereo not given in full), the Kd is > 4 mM (inactive).

For `CC(=O)OC1CCC23C(=O)OC45CCC(C6=CC(=O)OC6)C4(C)CCC2C5CCC3(O)C1` (stereo not given), the Kd is > 4 mM (inactive). The same measure for `O=C(O)C1CSC(c2ccco2)N1` (stereo not given): > 4 mM (inactive); for `CC1(C)O[C@H]2[C@H](O)C[C@](O)(C(N)=O)C[C@H]2O1`: > 4 mM (inactive). As to `CC1=CC(=O)CC(C)(C)C1(O)/C=C/C(C)=C\C(=O)O` (stereo not given), the Kd is > 4 mM (inactive). `CC1CCN(C(=O)c2ccc3c(c2)OCCO3)CC1`: the Kd was > 4 mM (inactive). For the molecule `COc1cc(/C=C2\SC(=S)NC2=O)ccc1O`, the Kd was > 4 mM (inactive). Turning to `O=S1(=O)CCC(NCCO)C1` (stereo not given), the Kd is > 4 mM (inactive).

Take `O=C1CCN(c2ccccc2)N1`: the Kd is > 4 mM (inactive). Turning to `C=CCn1c(N)c(C(=O)N2CCOCC2)sc1=S`, the Kd is > 4 mM (inactive).

Consider `CC(=O)NN1C(=O)/C(=C\c2ccc(O)cc2)SC1=S`, for which the Kd was > 4 mM (inactive). As for `Cc1ccc(NC(=O)/C=C2\SC(=O)NC2=O)cc1`, the Kd is > 4 mM (inactive). For `C=C1CCC(=O)C(C)CCC2C1CC2(C)C` (stereo not given), the Kd was > 4 mM (inactive). Regarding `CC(C)Nc1nc2n(c(=O)n1)CCN2C(C)C`, the Kd was > 4 mM (inactive).

Consider `S=c1[nH]nc(-c2cccnc2)n1Cc1ccccc1`, for which the Kd is > 4 mM (inactive). Turning to `C[C@]12CCC3C(CC[C@H]4C[C@@H](O)CC[C@]34C)C1CCC2=O` (stereo not given in full), the Kd was > 4 mM (inactive).

On to `C[N+](C)(C)CC(O)CC(=O)O` (stereo not given), for which the Kd is > 4 mM (inactive). For `NCc1nc2ccccc2s1`, the Kd was > 4 mM (inactive).

With `CC(=O)Nc1ccc(NC(=O)/C=C\C(=O)O)cc1`, the Kd was > 4 mM (inactive). Take `CSc1ccccc1NC(=O)c1c(C)noc1C`: the Kd is > 4 mM (inactive).

For orientation: Kd means the equilibrium constant for the complex coming apart.
